The target in one assay is B-Raf (Homo sapiens, UniProt P15056). Briefly: Luciferase-coupled chemiluminescence kinase assay (ATP consumption), B-Raf. The assay is classed as biochemical. Conditions: read-out: bRaf IC50. Summed up:
(§1)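 Pre-incub. kinase […] + cpd, 30 min RT (20 mM Tris pH 7.5, 10 mM MgCl2, 0.03% TX-100, 1 mM DTT). Start w/ ATP, 3 h ambient. Luciferase-luciferin mix added and luminescence read. Total ATP use 25-60%. IC50 derived.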

In the next assay the target is c-Raf (Homo sapiens, UniProt P04049). Briefly: Luciferase-coupled chemiluminescence kinase assay (ATP consumption), c-Raf. Type of assay: biochemical. Conditions: read-out: cRaf-1 IC50. Summed up:
as §1

Chain of B-Raf (P15056 whole entry): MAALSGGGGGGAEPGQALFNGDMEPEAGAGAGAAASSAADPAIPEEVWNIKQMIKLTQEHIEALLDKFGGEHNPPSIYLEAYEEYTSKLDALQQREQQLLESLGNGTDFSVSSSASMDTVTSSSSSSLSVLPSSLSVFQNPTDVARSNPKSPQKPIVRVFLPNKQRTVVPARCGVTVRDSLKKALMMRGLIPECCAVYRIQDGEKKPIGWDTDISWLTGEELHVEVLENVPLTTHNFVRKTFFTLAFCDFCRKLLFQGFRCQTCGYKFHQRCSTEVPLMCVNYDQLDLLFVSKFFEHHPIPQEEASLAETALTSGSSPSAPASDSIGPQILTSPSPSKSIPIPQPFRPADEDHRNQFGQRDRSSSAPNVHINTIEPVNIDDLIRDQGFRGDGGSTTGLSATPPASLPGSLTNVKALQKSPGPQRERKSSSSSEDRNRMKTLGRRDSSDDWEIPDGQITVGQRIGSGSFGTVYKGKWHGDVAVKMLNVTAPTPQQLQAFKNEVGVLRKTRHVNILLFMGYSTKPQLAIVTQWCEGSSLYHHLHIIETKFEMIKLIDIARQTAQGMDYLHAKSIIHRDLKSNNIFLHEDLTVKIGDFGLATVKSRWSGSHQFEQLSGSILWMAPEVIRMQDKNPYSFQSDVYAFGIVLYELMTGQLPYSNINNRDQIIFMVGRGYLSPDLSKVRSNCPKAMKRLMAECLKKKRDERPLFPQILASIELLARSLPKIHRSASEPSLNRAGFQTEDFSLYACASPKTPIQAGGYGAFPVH
Chain of c-Raf (P04049 whole entry): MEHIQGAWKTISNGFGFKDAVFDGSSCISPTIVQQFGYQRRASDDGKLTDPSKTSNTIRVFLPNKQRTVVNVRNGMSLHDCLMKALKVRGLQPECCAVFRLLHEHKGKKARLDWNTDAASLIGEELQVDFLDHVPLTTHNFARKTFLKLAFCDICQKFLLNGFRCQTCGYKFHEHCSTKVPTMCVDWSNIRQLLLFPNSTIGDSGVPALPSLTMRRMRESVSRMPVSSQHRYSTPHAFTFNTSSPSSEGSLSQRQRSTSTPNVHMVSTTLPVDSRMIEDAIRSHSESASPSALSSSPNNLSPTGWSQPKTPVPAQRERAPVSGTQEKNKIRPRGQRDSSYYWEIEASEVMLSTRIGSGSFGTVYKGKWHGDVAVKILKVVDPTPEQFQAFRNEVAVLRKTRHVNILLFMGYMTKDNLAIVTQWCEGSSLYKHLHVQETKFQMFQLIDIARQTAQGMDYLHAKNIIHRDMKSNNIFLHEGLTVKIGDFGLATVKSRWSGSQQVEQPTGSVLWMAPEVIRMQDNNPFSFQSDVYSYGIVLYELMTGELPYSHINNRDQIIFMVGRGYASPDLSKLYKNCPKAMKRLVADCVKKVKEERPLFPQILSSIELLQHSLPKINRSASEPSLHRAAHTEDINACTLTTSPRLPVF

On to `CN(C)C(=O)Nc1nc2cc(C3(O)c4ccccc4C(=O)N3Cc3ccccc3)ccc2[nH]1` (stereo not drawn) [Entry 158, N′-{5-[1-hydroxy-3-oxo-2-(phenylmethyl)-2,3-dihydro-1H-isoindol-1-yl]-1H-benzimidazol-2-yl}-N,N-dimethylurea], for which the half-maximal inhibitory concentration (IC50) at B-Raf and on c-Raf was less than 100 nM each time.

Turning to `COC(=O)Nc1nc2cc(C3(O)c4ccccc4C(=O)N3c3cccc(OCCN(C)C)c3)ccc2[nH]1` (stereo not drawn) [Entry 159, methyl {5-[2-(3-{[2-(dimethylamino)ethyl]oxy}phenyl)-1-hydroxy-3-oxo-2,3-dihydro-1H-isoindol-1-yl]-1H-benzimidazol-2-yl}carbamate], the IC50 (commonly the concentration that gives 50% inhibition) at B-Raf lay within 1000 to 10000 nM; at c-Raf, 100 to 1000 nM.

Take `CN1CCN(CCCOC(=O)Nc2nc3ccc(C4(O)c5ccccc5C(=O)N4Cc4ccccc4)cc3[nH]2)CC1` (stereo not drawn) [Entry 160, 3-(4-methylpiperazin-1-yl)propyl {6-[1-hydroxy-3-oxo-2-(phenylmethyl)-2,3-dihydro-1H-isoindol-1-yl]-1H-benzimidazol-2-yl}carbamate]: the IC50 on B-Raf and on c-Raf was less than 100 nM in each case.

In the case of `COC(=O)Nc1nc2cc(C3(O)c4ccccc4C(=O)N3CC3CCCCC3)ccc2[nH]1` (stereo not drawn) [Entry 161, methyl {5-[2-(cyclohexylmethyl)-1-hydroxy-3-oxo-2,3-dihydro-1H-isoindol-1-yl]-1H-benzimidazol-2-yl}carbamate], the IC50 at B-Raf and at c-Raf was less than 100 nM throughout.

In the case of `COC(=O)Nc1nc2cc(C3(O)c4ccccc4C(=O)N3CC(C)C)ccc2[nH]1` (stereo not drawn) [Entry 162, methyl {5-[1-hydroxy-2-(2-methylpropyl)-3-oxo-2,3-dihydro-1H-isoindol-1-yl]-1H-benzimidazol-2-yl}carbamate], the IC50 at B-Raf and on c-Raf was 100 to 1000 nM in each case.

Consider `COC(=O)Nc1nc2cc(C3(O)c4ccccc4C(=O)N3Cc3nccs3)ccc2[nH]1` (stereo not drawn) [Entry 163, methyl {5-[1-hydroxy-3-oxo-2-(1,3-thiazol-2-ylmethyl)-2,3-dihydro-1H-isoindol-1-yl]-1H-benzimidazol-2-yl}carbamate], for which the IC50 at B-Raf and on c-Raf was 100 to 1000 nM in each case.

Regarding `COC(=O)Nc1nc2cc(C3(O)c4ccccc4C(=O)N3c3ccc(F)c(F)c3)ccc2[nH]1` (stereo not drawn) [Entry 164, methyl {5-[2-(3,4-difluorophenyl)-1-hydroxy-3-oxo-2,3-dihydro-1H-isoindol-1-yl]-1H-benzimidazol-2-yl}carbamate], the IC50 at B-Raf and on c-Raf was less than 100 nM each time.

In the case of `COC(=O)Nc1nc2cc(C3(O)c4ccccc4C(=O)N3C(C)c3cc(F)cc(F)c3)ccc2[nH]1` (stereo not drawn) [Entry 165, methyl (5-{2-[1-(3,5-difluorophenyl)ethyl]-1-hydroxy-3-oxo-2,3-dihydro-1H-isoindol-1-yl}-1H-benzimidazol-2-yl)carbamate], the IC50 was 1000 to 10000 nM at B-Raf and 100 to 1000 nM at c-Raf.

Turning to `COC(=O)Nc1nc2cc(C3(O)c4ccccc4C(=O)N3C(C)c3cccc(F)c3)ccc2[nH]1` (stereo not drawn) [Entry 166, methyl (5-{2-[1-(3-fluorophenyl)ethyl]-1-hydroxy-3-oxo-2,3-dihydro-1H-isoindol-1-yl}-1H-benzimidazol-2-yl)carbamate], the IC50 on B-Raf is less than 100 nM; at c-Raf, 100 to 1000 nM.

Regarding `COC(=O)Nc1nc2cc(C3(O)c4ccccc4C(=O)N3C3CCCCC3)ccc2[nH]1` (stereo not drawn) [Entry 167, methyl [5-(2-cyclohexyl-1-hydroxy-3-oxo-2,3-dihydro-1H-isoindol-1-yl)-1H-benzimidazol-2-yl]carbamate], the IC50 on B-Raf and at c-Raf was less than 100 nM in each case.

As to `COC(=O)Nc1nc2cc(C3(O)c4ccccc4C(=O)N3c3cc(F)ccc3F)ccc2[nH]1` (stereo not drawn) [Entry 168, methyl {5-[2-(2,5-difluorophenyl)-1-hydroxy-3-oxo-2,3-dihydro-1H-isoindol-1-yl]-1H-benzimidazol-2-yl}carbamate], the IC50 on B-Raf and on c-Raf was less than 100 nM each time.

For the molecule `O=C(NCc1ccccc1)Nc1nc2cc(C3(O)c4ccccc4C(=O)N3Cc3ccccc3)ccc2[nH]1` (stereo not drawn) [Entry 169, N-{5-[1-hydroxy-3-oxo-2-(phenylmethyl)-2,3-dihydro-1H-isoindol-1-yl]-1H-benzimidazol-2-yl}-N′-(phenylmethyl)urea], the half-maximal inhibitory concentration (IC50) at B-Raf and at c-Raf was less than 100 nM each time.

Turning to `O=C(Nc1nc2cc(C3(O)c4ccccc4C(=O)N3Cc3ccccc3)ccc2[nH]1)OC1CCNCC1` (stereo not drawn) [Entry 170, piperidin-4-yl {5-[1-hydroxy-3-oxo-2-(phenylmethyl)-2,3-dihydro-1H-isoindol-1-yl]-1H-benzimidazol-2-yl}carbamate], the half-maximal inhibitory concentration (IC50) at B-Raf and on c-Raf was less than 100 nM each time.

For the molecule `CNC(=O)Nc1nc2cc(C3(O)c4ccccc4C(=O)N3Cc3ccccc3)ccc2[nH]1` (stereo not drawn) [Entry 171, N-{5-[1-hydroxy-3-oxo-2-(phenylmethyl)-2,3-dihydro-1H-isoindol-1-yl]-1H-benzimidazol-2-yl}-N′-methylurea], the IC50 on B-Raf and on c-Raf was less than 100 nM in each case.

Consider `COC(=O)Nc1nc2cc(C3(O)c4ccccc4C(=O)N3C(C)c3ccccc3F)ccc2[nH]1` (stereo not drawn) [Entry 172, methyl (5-{2-[1-(2-fluorophenyl)ethyl]-1-hydroxy-3-oxo-2,3-dihydro-1H-isoindol-1-yl}-1H-benzimidazol-2-yl)carbamate], for which the IC50 on B-Raf and on c-Raf was 1000 to 10000 nM throughout.

Regarding `COC(=O)Nc1nc2cc(C3(O)c4ccccc4C(=O)N3C(C)c3cccs3)ccc2[nH]1` (stereo not drawn) [Entry 173, methyl (5-{1-hydroxy-3-oxo-2-[1-(2-thienyl)ethyl]-2,3-dihydro-1H-isoindol-1-yl}-1H-benzimidazol-2-yl)carbamate], the IC50 on B-Raf and at c-Raf was less than 100 nM in each case.

Take `COC(=O)Nc1nc2cc(C3(O)c4ccccc4C(=O)N3C(C)c3cccc(Cl)c3)ccc2[nH]1` (stereo not drawn) [Entry 174, methyl (5-{2-[1-(3-chlorophenyl)ethyl]-1-hydroxy-3-oxo-2,3-dihydro-1H-isoindol-1-yl}-1H-benzimidazol-2-yl)carbamate]: the results for the IC50 on B-Raf and at c-Raf were less than 100 nM and 100 to 1000 nM, respectively.

As for `COC(=O)Nc1nc2cc(C3(O)c4ccccc4C(=O)N3c3cc(C)cc(C(F)(F)F)c3)ccc2[nH]1` (stereo not drawn) [Entry 175, methyl (5-{1-hydroxy-2-[3-methyl-5-(trifluoromethyl)phenyl]-3-oxo-2,3-dihydro-1H-isoindol-1-yl}-1H-benzimidazol-2-yl)carbamate], the 50% inhibitory concentration (IC50) at B-Raf and at c-Raf was less than 100 nM in each case.

In the case of `CCC(=O)Nc1nc2cc(C3(O)c4ccccc4C(=O)N3Cc3ccccc3)ccc2[nH]1` (stereo not drawn) [Entry 176, N-{5-[1-hydroxy-3-oxo-2-(phenylmethyl)-2,3-dihydro-1H-isoindol-1-yl]-1H-benzimidazol-2-yl}propanamide], the IC50 at B-Raf and on c-Raf was less than 100 nM in each case.

As to `COC(=O)Nc1nc2cc(C3(O)c4ccccc4C(=O)N3c3ccc(Cl)c(Cl)c3)ccc2[nH]1` (stereo not drawn) [Entry 177, methyl {5-[2-(3,4-dichlorophenyl)-1-hydroxy-3-oxo-2,3-dihydro-1H-isoindol-1-yl]-1H-benzimidazol-2-yl}carbamate], the IC50 on B-Raf and on c-Raf was less than 100 nM throughout.

For the molecule `CCc1cccc(N2C(=O)c3ccccc3C2(O)c2ccc3[nH]c(NC(=O)OC)nc3c2)c1` (stereo not drawn) [Entry 178, methyl {5-[2-(3-ethylphenyl)-1-hydroxy-3-oxo-2,3-dihydro-1H-isoindol-1-yl]-1H-benzimidazol-2-yl}carbamate], the IC50 on B-Raf and on c-Raf was less than 100 nM in each case.

Take `C#Cc1cccc(N2C(=O)c3ccccc3C2(O)c2ccc3[nH]c(NC(=O)OC)nc3c2)c1` (stereo not drawn) [Entry 179, methyl {5-[2-(3-ethynylphenyl)-1-hydroxy-3-oxo-2,3-dihydro-1H-isoindol-1-yl]-1H-benzimidazol-2-yl}carbamate]: the IC50 at B-Raf and on c-Raf was less than 100 nM throughout.

In the case of `COC(=O)Nc1nc2cc(C3(O)c4ccccc4C(=O)N3c3ccc(Cl)c(C)c3)ccc2[nH]1` (stereo not drawn) [Entry 180, methyl {5-[2-(4-chloro-3-methylphenyl)-1-hydroxy-3-oxo-2,3-dihydro-1H-isoindol-1-yl]-1H-benzimidazol-2-yl}carbamate], the IC50 at B-Raf and at c-Raf was less than 100 nM each time.

With `COC(=O)Nc1nc2cc(C3(O)c4ccccc4C(=O)N3C(C)c3cccc(C(F)(F)F)c3)ccc2[nH]1` (stereo not drawn) [Entry 181, methyl [5-(1-hydroxy-3-oxo-2-{1-[3-(trifluoromethyl)phenyl]ethyl}-2,3-dihydro-1H-isoindol-1-yl)-1H-benzimidazol-2-yl]carbamate], the concentration for half-maximal inhibition (IC50) on B-Raf and at c-Raf was 1000 to 10000 nM throughout.

Consider `CC[C@H](c1ccccc1)N1C(=O)c2ccccc2C1(O)c1ccc2[nH]c(NC(=O)OC)nc2c1` (stereo partly drawn) [Entry 182, methyl (5-{1-hydroxy-3-oxo-2-[(1R)-1-phenylpropyl]-2,3-dihydro-1H-isoindol-1-yl}-1H-benzimidazol-2-yl)carbamate], for which the IC50 on B-Raf and on c-Raf was 100 to 1000 nM in each case.

Regarding `COC(=O)Nc1nc2cc(C3(O)c4ccccc4C(=O)N3c3ccccc3OC(F)(F)F)ccc2[nH]1` (stereo not drawn) [Entry 183, methyl [5-(1-hydroxy-3-oxo-2-{2-[(trifluoromethyl)oxy]phenyl}-2,3-dihydro-1H-isoindol-1-yl)-1H-benzimidazol-2-yl]carbamate], the half-maximal inhibitory concentration (IC50) at B-Raf was less than 100 nM; on c-Raf, 100 to 1000 nM.

As to `COC(=O)Nc1nc2cc(C3(O)c4ccccc4C(=O)N3c3cccc(F)c3F)ccc2[nH]1` (stereo not drawn) [Entry 184, methyl {5-[2-(2,3-difluorophenyl)-1-hydroxy-3-oxo-2,3-dihydro-1H-isoindol-1-yl]-1H-benzimidazol-2-yl}carbamate], the IC50 on B-Raf and on c-Raf was less than 100 nM throughout.

The values are drawn from US7846959B2, “Raf modulators and methods of use” (Exelixis, Inc., priority 2004, dated 2010).
